Experimental data as given in US20200016155A1, “COMPOSITIONS AND TREATMENT OF HEART DEFICIENCY IN NON-HUMAN ANIMALS” (CEVA SANTE ANIMALE, priority 2007, published 2020).
Where two headings read alike, the source gives them in different places.

Tests used:
[1] = Pharmacokinetic study with 22-14C spironolactone, rat; type: in vivo; conditions: rats, after 4 hour oral administration
[2] = Pharmacokinetic study with 22-14C spironolactone, dog; type: in vivo; conditions: dogs, after 4 hour oral administration
[3] = Pharmacokinetic study with 22-14C spironolactone, monkey; type: in vivo; conditions: monkeys, after 4 hour oral administration
[4] = tested on: aldosterone effect on log([Na+]urinary×10/[K+]urinary); assay: Anti-aldosterone activity model (Hofman): urinary log([Na+]x10/[K+]) in dogs given aldosterone; type: in vivo, dog; conditions: for inhibition of the effect of aldosterone on log ([Na+]urinary×10/[K+]urinary): first 6 hours and 12 hours after dosage
Method: The model for assessing the anti-aldosterone activity as described by Hofman L. M et al. (1975, The Journal of Pharmacology and Experimental Therapeutics. 194, 450-456) was used. […] A preliminary study was performed in order to determining the ED80 value for the natriuretic effect of aldosterone on its own. […] An elimination period of at least 48 hours was left between each administration.
The dogs described above were allocated to different treatment groups (A, B, C, D, and E) and a rest period was left between treatments.
A negative control group A only received the pharmaceutical excipient. The positive control group B only received 3 μg/kg of aldosterone. […] 200 g food was then given immediately after treatment.
The tubes were centrifuged rapidly at 1500 rpm for 10 minutes (at a temperature of +4° C.±2° C.), and the plasma was distributed in two propylene tubes (1.2 mL). The samples were frozen and kept in the dark at approx. −80° C. On the day of the fest, the bladders of the animals were emptied by catherisation, then 6 and 24 hours after treatment. Also, the urine was collected during the time periods ranging from T0-T6h; T6h-T12h and T12h-T24h.
The sodium and potassium contents in urines were determined using […]. […] According to this method 500 μL plasma were mixed with ethyl acetate (80/20,V/V) as solvents. […] The compounds and the internal standard (i.e. methyl-testosterone) were separated on a Kromasil C18 column. The quantification levels were 10 μg/L for all compounds within +/−14% variation.
E0, Elog ({Na+)urinary×10/[K+}) max dose and ED50 were obtained by nonlinear regression, and n is the Hill coefficient describing the dose effect relation.

[5] = tested on: dogs affected by heart failure; assay: Multicentre randomised double-blind placebo-controlled clinical studies in dogs affected by heart failure; type: in vivo, dog; conditions: group of dogs on spironolactone
Method: Multicentre, randomised, double-blind placebo-controlled clinical studies were conducted.
For gauging the effects of the treatment, both groups were examined five times, i.e., on the first day of treatment (D1), then on the 84th day (D84), […], 252nd day (D252) and 336th day (D336). This examination consisted of a clinical examination of the dogs, urine and blood analyses, and a radiograph. Moreover, an echocardiograph was taken on days D1, D168 and D336.
Also, the effects of the treatment were assessed on the symptoms such as cough and mobility, as well as on the prevention of symptoms such as dyspnoea, pulmonary edema, and tolerance to effort.

[6] = Plasmatic potassium (kaliemia) measurements during the clinical studies; type: in vivo, dog
Method: The plasmatic potassium concentrations (mmol/L) were measured during the treatments. […] Only sporadic case of low or moderate hyperkaliemia could be observed and these events were transient. Indeed, these hyperkaliemia events could only be observed a couple of times during examinations, and some of them were present on day D1, before the beginning of the treatment.

[7] = tested on: patients affected by severe heart failure; conditions: 25 mg spironolactone with CEI, ansa diuretics, sometimes digoxin; 822 patients; cited from earlier work
[8] = tested on: human patient; conditions: cited from earlier work

SMILES: CC(=O)S[C@@H]1CC2=CC(=O)CC[C@]2(C)[C@H]2CC[C@@]3(C)[C@@H](CC[C@@]34CCC(=O)O4)[C@H]12 [spironolactone, 7α-acetylthio-3-oxo-17α-pregn-4-ene-21,17-carbolactone]
- plasma radioactivity percentage [1]: 66%
- plasma radioactivity percentage [2]: 76%
- plasma radioactivity percentage [3]: 33%
- natriuretic responses ([4]; 0.8 mg/kg): no effect on certain dogs
- natriuretic responses ([4]; 2 mg/kg): completely reversed
- inhibition of the effect of aldosterone on log ([Na+]urinary×10/[K+]urinary) ([4]; 2 mg/kg): complete reversal of the effect
- natriuretic responses ([4]; 8 mg/kg): other increases in the elimination of Na were observed
- inhibition of the effect of aldosterone on log ([Na+]urinary×10/[K+]urinary) ([4]; 8 mg/kg): complete reversal of the effect
- E(0.8 mg/kg)−E0 ([4]; dose 0.8 mg/kg): 0.3233
- restoring of the effect ([4]; dose 0.8 mg/kg): 57%
- E(2 mg/kg) ([4]; dose approx. 2 mg/kg): 0.4933
- restoring of the effect ([4]; dose approx. 2 mg/kg): 88%
- log ([Na+]urinary×10/[K+]urinary), average ([4]; urine collected 0 to 6 hours after administration of spironolactone, from 0.70±0.22): 1.14±0.18
- clinical symptoms [5]: improved symptoms such as cough and mobility
- variation in kaliemia ([6]; 2 mg/kg/day, dogs): did not cause any variation in kaliemia or only low transient variations in kaliemia
- Low and transient hyperkaliemia (5.9 to 6.4 mmol/L), cases ([6]; 2-month clinical study (4 analyses)): 3
- Low and transient hyperkaliemia (5.9 to 6.4 mmol/L), cases ([6]; 3-month clinical study (6 analyses)): 5
- Low and transient hyperkaliemia (5.9 to 6.4 mmol/L), cases ([6]; 12-month clinical study (5 analyses)): 3
- progression of average plasmatic potassium (kaliemia) ([6]; FIG. 9, spironolactone 2 mg/kg/day + CEI): stable kaliemia
- dead in the spironolactone group, percentage [7]: 35%
- number of dead in the spironolactone group [7]: 284
- Therapeutic effect in human ([8]; 12.5 mg/day): Significant reduction in morbidity/
- Therapeutic effect in human ([8]; 25 mg/day): Significant reduction in morbidity/
- Therapeutic effect in human ([8]; 50 mg/day): Significant reduction in morbidity/
- Therapeutic effect in human ([8]; 75 mg/day): Significant reduction in morbidity/

SMILES: C[C@]12CCC(=O)C=C1CC[C@@H]1[C@@H]2[C@@H](O)C[C@]2(C=O)[C@@H](C(=O)CO)CC[C@@H]12 [aldosterone]
- E0 (control group) ([4]; basic effect after aldosterone on its own (positive control), 0 to 6 hours): 0.527
